According to patent publication US8318815B2, “Method for treatment of tumors using nordihydroguaiaretic acid derivatives” (priority 1999, dated 2012):
Read-outs that look alike come from different tables or passages of the source.

Assays:
[1] = tested on: HIV LTR promoter (Tat-transactivation); assay: Tat-transactivation of HIV promoter activity in Cos cells, SEAP assay; type: cell-based; details: read-out: IC50 for inhibition of HIV Tat-regulated transactivation
Description: As reported previously, methylated NDGA derivatives can block Sp1 binding to the enhancer sites of a variety of viral promoters including HIV, ICP4 of HSV, E6/E7 gene of HPV (8, 9, 10). We further tested the G4N effect on the Tat-transactivation of HIV promoter activity in Cos cells by the SEAP assay as previously described. […] There were 60-fold or more increase in SEAP expression when Cos cells were cotransfected with the CMV promoter driven Tat gene (8). Such Tat-driven ransactivation of the HIV LTR promoter activity was previously shown to be Sp1 regulated (7, 8). In the presence of G4N, we observed inhibition of HIV transactivation in a dose-dependent fashion (FIG. 14). […]. The differences perhaps are due to the chemical nature of the test compounds affecting the drug uptake to the cells.

[2] = Toxicity studies of G4N in mice; details: for Mortality: 6 days
Experimental: C57BL-16NCR female mice from NCI were used in this experiment.
Injections of 0.05 ml for group 1, 0.1 ml for groups 2 and 4, and 0.2 ml for group 3 per treatment were made for a period of 6 days. Experiments lasted seven days. Body weights were determined before and after six days of injection.

SIVmac 239 = assay: SIV production in 174×CEM cells, p27 antigen capture ELISA; type: cell-based
Experimental: FIG. 15. SIV production with presence of G4N. 10^7 […], a human T-cell lymphoma cell line, were mixed with a 24 hrs. harvest stock of SIV mac 239 (4 ng of p27) for two hours at 37. Cells were resuspended and 1×10^5 cells in 100 μl medium were added to each well of three 96-well plates. Various concentrations of G4N from a freshly made stock were prepared and added to each of the six designed well. Culture supernatants were collected after four and eight days for viral production analysis. Viral production was assayed by a modified p27 capsid protein antigen capture ELISA as described in experimental section.
Both HIV-1 and SIV are retroviruses that require integration into the host genome to complete their replication. Both rely on host transcription factors for their proviral transcriptions. Sp1 plays a central role for such expression in these two viruses sharing an almost identical mode of transcription regulation. […] There was no SIV production detected using G4N in concentrations above […]. At G4N concentrations below 2.5 CIM, SIV production was detected (FIG. 15) in culture supernatants from 4th and 8th days post infected cultures as compared to viral production in the absence of the drug.

HIV-1RTMF = assay: HIV-1 production in H9 cells, p24 antigen capture ELISA; type: cell-based; details: p24, AZT resistant strain, read-out: IC50 for the inhibition of HIV-1 RTMF
Experimental: FIG. 16. Inhibition of HIV p24 antigen production in H9 cells by G4N. Inhibition in percentage was calculated by comparing p24 level from an average of two duplicate cultures of G4N treated and not treated H9 cells 9 days following viral infection with a AZT resistant HIV strain, HIV-1RTMF.
(§1) A similar experiment was also carried out for the study of inhibition of HIV-1 by G4N in H9 cells. The H9 cells were subcultured at 1×10^5/ml and were infected with an AZT resistant strain of HIV-1(HIV-1RTMF). G4N in different concentrations was added two hours after infection. Fresh medium change was made every four days. Cell growth in the presence of G4N was monitored carefully during the nine-day experimental period. Viral production was assayed by a p24 core antigen capture ELISA. […] Again, there was no detectable toxicity to uninfected H9 cells within the range of the assay (and below 250 μM).

[3] = target: Sp1-167D / HIV Sp1-binding sites (Homo sapiens, UniProt P08047); assay: Gel mobility-shift analysis (EMSA) of Sp1-167D binding to HIV Sp1 DNA template; details: 0.25 to 1.75 mM
Experimental: FIG. 13. Electrophoretic mobility shift assay (EMSA) of G4N interaction with the HIV Sp1-binding sites (−87 to −49). (A) G4N inhibition of Sp1-167D binding to ^32P labeled HIV Sp1 DNA template. […] Lane 1, template alone; lanes 2-4, template plus increasing amounts of Sp1-167D (0.075, 0.150, 0.300 μg); lanes 5-8, template incubated in reaction buffer containing 1.2 mM G4N followed by challenge with increasing amounts of Sp1-167D (0.075, 0.150, 0.300 μg), lane 8 received no Sp1-167D. (D) Plot of diminishing Sp1-167D/DNA complex band intensities in response to increasing concentrations of G4N used in (A) ---•--- and (B) —•—. The gels used were 5% non-denaturing polyacrylamide with each lane receiving 5 μl of each reaction volume as described in experimental section and Ref. [1].
Sp1 family proteins induce bends toward the major groove of DNA upon binding (33). The zinc finger domain of the Sp1 protein is responsible for the binding of the GC Box sequence 5′-GGGGCGGGG-3′. From computational analysis, it was determined that G4N, the aminoester derivative of NDGA, could form a stable complex with such a sequence in the major groove. To determine whether G4N can serve as an Sp1 blocker as well as an Sp1 displacer, we performed Sp1/enhancer interaction studies in the presence or absence of G4N by the gel mobility-shift analysis using only the […] binding domain of Sp1 for testing. […]

H9 cells = type: cell-based
Experimental: as §1

174×CEM cells = type: cell-based, human
Description: Both HIV-1 and SIV are retroviruses that require integration into the host genome to complete their replication. Both rely on host transcription factors for their proviral transcriptions. Sp1 plays a central role for such expression in these two viruses sharing an almost identical mode of transcription regulation. In anticipation of using SIV infected rhesus monkeys as animal model for testing the antiviral effect of G4N, we have studied and compared the G4N effect in inhibition of SIV in 174×CEM cells with that of HIV in H9 cells. Cellular toxicities of G4N in these two cell lines were also examined. For SIV inhibition study, 10^7 174×CEM cells were mixed with high titer stock of SIVmac 239 at 37° C. for two hours and then washed twice with cold PBS buffer to remove the unabsorbed virus. Cell suspension was aliquoted into each well of three 96 well plates. Various concentrations of the G4N solutions were made from freshly prepared stock and aliquoted separately and each to six wells in a column of one 96 well plate. Culture supernatants were collected every four days post infection. […] There was no SIV production detected using G4N in concentrations above […]. At G4N concentrations below 2.5 CIM, SIV production was detected (FIG. 15) in culture supernatants from 4th and 8th days post infected cultures as compared to viral production in the absence of the drug.

mammalian cells = details: low concentrations (10 μM); cited from earlier work
HSV-1 [4] = details: cited from earlier work; for IC50: infected Vero cells
HSV-1 [5] = assay: HSV-1 skin infection in guinea pig, topical treatment; type: in vivo; details: 30 μl of 60 mg/ml in DMSO, five times per day for six days
Experimental: The drug M4N was also tested in inhibition of HSV-1 replication in skin infections in guinea pigs. Guinea pig skin was pinched with needles and HSV-1 […] was applied topically to infect each pricked area. M4N was then applied to the pricked infected area following infection daily for 6 days.
Six areas of bared back skin of a guinea pig were punched sterilely with a 5=DIN needle. Two areas were infected with HSV-1 (HSV-C, culture supernatant, or isolated HSV in saline, HSV-SC). The other four areas were infected with HSV-SC.

HSV-2 = details: infected Vero cells; fourth passage of HSV-2; cited from earlier work

Chain of Sp1-167D / HIV Sp1-binding sites (P08047 619-785 limits assumed): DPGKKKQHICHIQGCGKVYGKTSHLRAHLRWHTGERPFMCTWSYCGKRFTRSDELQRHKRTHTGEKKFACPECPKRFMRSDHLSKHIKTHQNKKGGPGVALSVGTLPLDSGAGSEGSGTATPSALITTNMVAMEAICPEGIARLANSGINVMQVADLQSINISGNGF

`COc1cc(C[C@H](C)[C@H](C)Cc2ccc(O)c(O)c2)ccc1O` [Ma1.4, 3-O-methyl NDGA, reference compound] gave an IC50 [1] of 25 µM.
In the case of `C[C@H](Cc1ccc(OC(=O)CN(C)C)c(OC(=O)CN(C)C)c1)[C@@H](C)Cc1ccc(OC(=O)CN(C)C)c(OC(=O)CN(C)C)c1.Cl.Cl.Cl.Cl` [G4N, meso-1,4-Bis [3,4-(dimethylaminoacetoxy)phenyl]-(2R,3S)-dimethylbutane Chloride Salt], the Mortality ([2]; 187.5 mg/kg, Subcutaneous, 2× per day) is reported as 0/3, the Mortality ([2]; 375 mg/kg, IV, 2× per day) is reported as 0/2 and the Mortality ([2]; 375 mg/kg, Subcutaneous, 1× per day) is reported as 0/3. The Mortality ([2]; 750 mg/kg, Subcutaneous, 1× per day) was 1/4, the “body weight changes during the experimental period” value ([2]; before and after six days of injection) was “No significant weight changes” and the “concentrations at which no SIV production was detected” value (SIVmac 239) was “above 5 CIM”. For the same compound, the “concentrations at which SIV production was detected” value (SIVmac 239; 4th and 8th days post infection) was “below 2.5 CIM”, the IC50 (HIV-1RTMF) was 12 µM and the IC50 [1] was 36 µM. The “blocking and displacement of Sp1-167D binding to DNA” value [3] was “able keep DNA from interacting with Sp1-167D protein”, the “concentration with no detectable toxicity to uninfected cells” value (H9 cells) was “below 250 μM” and the “concentration with no toxic effect on uninfected cells” value (174×CEM cells) was at most 250 µM.
For `CC(Cc1ccc(O)c(O)c1)C(C)Cc1ccc(O)c(O)c1` (stereo not shown) [NDGA, nordihydroguaiaretic acid], the “apoptosis in mammalian cells” value (mammalian cells) is listed as “induce apoptosis”.
For `Nc1nc2c(ncn2COCCO)c(=O)[nH]1` [ACV, acycloguanosine], the “drop of selective index, S.I. (TC50/IC50)” value (HSV-1 [4]; following the viral passages in Vero cells) is given as 60 fold, the IC50 (HSV-1 [4]; first viral passage) is given as 7 µM and the IC50 (HSV-1 [4]; tenth passage of HSV-1) is given as 444 µM. For the same compound, the “blisters in HSV-1 infected skin areas at day 6” value (HSV-1 [5]) was “no blisters” and the IC50 (HSV-2) was over 88 µM.
